In PubChem BioAssay (NCI) one finds GI50 and TGI data, which are given here for 8 compounds.

What all share (experiment): NCI tumour cell line growth inhibition, 48 h
The test system of assay [1] is PC-3 prostate.
The test system of assay [2] is RPMI-8226 leukemia.
The test system of assay [3] is HS 578T breast.
Assay [4] concerns SNB-75 CNS.
Assay [5] has as its system MALME-3M melanoma.
Assay [6] relates to TK-10 renal.
Assay [7] concerns UACC-62 melanoma.
For assay [8], the system named is SW-620 colon.
For assay [9], the system named is A498 renal.
The test system of assay [10] is M14 melanoma.

Structures are written as SMILES. Several values for one entry are separate records, joined by “and”; a condition that tells them apart may be missing. Identical values can stand only once.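 Test compounds were applied to cells in 96-well plates for 48 hours at 5 doses. GI50 marks 50% less growth. TGI denotes the concentration required for complete inhibition of growth.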

Consider `O=C1C(Cl)=C(Nc2cccc(Cl)c2)C(=O)N1Cc1ccc(Cl)cc1`, for which the GI50 is 1.32 µM in [1]; 0.266 µM in assay [2]; 0.913 µM in assay [3]; 1.48 µM in assay [4]; 0.137 µM in assay [5]; 3.37 µM in [6]. Also, the GI50 in assay [7] is 0.779 µM; in assay [8], 0.323 µM; in assay [9], 1.55 µM; in [10] it was 2.11 µM. The TGI in assay [1] came out at 11.9 µM; in [2], 3.37 µM; in assay [3], 11.1 µM; in [4] it was 14.6 µM; in assay [5], 2.84 µM; in assay [6] it was 15.4 µM. For the same compound, the TGI is 4.68 µM in assay [7], 9.97 µM in assay [8], 11.9 µM in [9] and 9.94 µM in assay [10].

On to `COc1ncnc2c(-c3ccccc3)cn(COCc3ccccc3)c12`, for which the GI50 in assay [1] is 2.72 µM; in assay [2], 2.03 µM; in [3], 7.8 µM; in assay [4], 4.03 µM; in [5] it was 2.52 µM; in [6] it was 4.05 µM. In addition, the GI50 in [7] is 2.1 µM; in assay [8] it was 4.6 µM; in assay [9], 1.96 µM; in assay [10] it was 2.66 µM. In addition, the TGI in assay [1] was above 100 µM; in [2], 13 µM; in assay [3], above 100 µM; in [4], above 100 µM; in assay [5], 7.69 µM; in assay [6], above 100 µM. Further, the TGI in assay [7] is 8.81 µM; in assay [8] it was above 100 µM; in assay [9] it was 10.1 µM; in assay [10], 7.07 µM.

Consider `C=C(C)C(O)CCC1(C)C=Cc2c(c(C)cc3c2[nH]c2ccccc23)O1` (stereo not drawn), for which the TGI is 19.3 µM in [1]; 25 µM and 8.01 µM in assay [2]; 13.5 µM in assay [3]; 9.8 µM in assay [4]; 25 µM and 24.7 µM in assay [5]; > 25 µM and 27 µM in [6]. Besides, the TGI in assay [7] is 11 µM; in assay [8], 10.2 µM and 18.7 µM; in assay [9] it was 26.6 µM; in [10], 10.9 µM and 19.7 µM. Besides, the GI50 is 2.96 µM in [2], 14 µM in assay [6], 5.08 µM in assay [8] and 6.63 µM in assay [10].

For `O=C(c1ccccc1)c1ccccc1-c1ccccc1`, the GI50 in assay [1] was 3.67 µM; in assay [2] it was 4.91 µM; in assay [3] it was 1.58 µM; in assay [4] it was 2.11 µM; in [5] it was 8.79 µM; in assay [6], 6.28 µM. For the same compound, the GI50 in assay [7] was 4.43 µM; in assay [8] it was 1.54 µM; in assay [9] it was 2.08 µM; in [10] it was 1.75 µM. In addition, the TGI was above 100 µM in [1]; 52 µM in assay [2]; 10.2 µM in [3]; 19.8 µM in assay [4]; 65.7 µM in assay [5]; above 100 µM in [6]. Moreover, the TGI is above 100 µM in assay [7], above 100 µM in assay [8], 15.6 µM in assay [9] and 13 µM in assay [10].

In the case of `CCN(Cc1cc(Nc2nc(C)cn3c(-c4cn[nH]c4)cnc23)sn1)C(C)(C)CO`, the GI50 in [1] is 0.0219 µM; in [2], 2.41 µM; in [3] it was 0.0227 µM; in assay [4], 0.0107 µM; in assay [5] it was 0.648 µM; in assay [6], 0.0507 µM. The GI50 is 0.0387 µM in assay [7], below 0.0107 µM in assay [8], below 0.01 µM in [9] and 0.0421 µM in [10]. The TGI in assay [1] turned out to be 9.66 µM; in [2], 10.1 µM; in [3], 0.0855 µM; in assay [4] it was 0.0365 µM; in [5] it was 16.2 µM; in assay [6], 2.24 µM. In addition, the TGI was 12.8 µM in assay [7], 5.08 µM in assay [8], 0.0163 µM in assay [9] and 2.84 µM in assay [10].

`C=C(C)[C@@H]1CC[C@]2(C)CC[C@]3(C)[C@H](CC[C@@H]4[C@@]5(C)CC[C@H](O)C(C)(C)[C@@H]5CC[C@]43C)[C@@H]12`: the TGI in assay [1] was 98.4 µM; in [2], above 100 µM; in assay [3], 61.7 µM; in assay [4], above 80.1 µM; in assay [5] it was above 100 µM; in assay [6] it was above 100 µM. The TGI is above 100 µM in assay [7], above 72.3 µM in assay [8], 32.6 µM in assay [9] and above 100 µM in [10].

On to `O=c1[nH]nnc2c1ncn2C1OC(CO)C(O)C1O` (stereo not drawn), for which the GI50 was 2.93 µM in [1]; 6.71 µM in assay [2]; above 100 µM in [3]; 0.99 µM in [4]; 7.25 µM in assay [5]; 2.98 µM in assay [6]. The GI50 in assay [7] is 4.95 µM; in [8] it was 10.6 µM; in assay [9], 61.3 µM; in assay [10], 3.57 µM. For the same compound, the TGI in assay [1], in [2], in assay [3], in [4], in assay [5] and in [6] was above 100 µM throughout. In addition, the TGI in assay [7], in [8], in assay [9] and in [10] was above 100 µM throughout.

For `O=C1C(Cl)=C(Nc2cccc(F)c2)C(=O)N1Cc1ccc(Cl)cc1`, the GI50 in [1] was 0.526 µM; in assay [2] it was 0.502 µM; in [3], 2.86 µM; in assay [4], 0.438 µM; in [5], 1.42 µM; in [6], 5.7 µM. The GI50 is 0.531 µM in assay [8], 2.42 µM in [9] and 1.2 µM in assay [10]. Also, the TGI in assay [1] turned out to be 4.53 µM; in [2], 14.2 µM; in [3] it was 9.28 µM; in assay [4], 7.63 µM; in [5], 10.8 µM; in [6], 19.3 µM. The TGI amounted to 2.48 µM in [7], 13 µM in assay [8], 8.99 µM in assay [9] and 4.35 µM in [10].
